Patent US10350231B2, “Use of cladribine for treating autoimmune inflammatory disease” (Chord Therapeutics S.a.r.l., priority 2014, dated 2019)
“Also recorded” adds a separate entry of the source.

Assays:
[1] = test system: neuromyelitis optica (NMO) patient; assay: Case report of off-label treatment of NMO patient with cladribine; format: in vivo, human
Protocol: A person presented with acute visual symptoms and optic neuritis with normal head MRI. Episodic visual symptoms recurred with increasing severity up to complete blindness in one eye and episodes of deterioration in the other. Some response to methylprednisolone was noted. The diagnostic test for NMO-IgG (ELISA) was positive and brain MRI had no focal lesions.
20 mg of cladribine were administered subcutaneously to the patient on each of five dosing days, with one month or more separating the dosing days. On a dosing day, two vials were used each containing 10 ml of a solution of cladribine as shown in Example 2. Eight subcutaneous sites were used, each receiving an injection of 2.5 ml.
At the end of nine months blindness was complete bilaterally but motor and sensory functions were normal. […] After 2 years the patient was admitted with motor, sensory and autonomic symptoms. Based on new symptoms, abnormalities on spinal cord MRI and the previous NMO-IgG test the diagnosis was confirmed as neuromyelitis optica. After 3 months there was partial improvement but remaining mild paraparesis.
Prior to cladribine treatment this patient experienced five episodes of worsening over four years (estimated annual relapse rate of 1.46). The intervening remission periods were 13, 15, 6 and 6 months. From initiation of an 8-month course of cladribine treatment they experienced 34 months of stable condition without reported relapses, followed by subsequent deterioration and other treatments.

[2] = test system: T-lymphocytes from NMO patients; assay: In vitro viability response of lymphocytes derived from NMO patients to cladribine; format: cell-based, human; settings: cladribine 1×10^−9M to 1×10^−4M, e.g. four days; with or without anti-CD3/anti-CD28; compared with healthy donors
Source text: Using the methods described in Laugel B. et al., J. Neuroimmunol.; (2011); 240-241; 52-57 peripheral blood mononuclear cells (PBMCs) are first isolated from blood obtained from healthy donors and NMO patients, for example by ficoll gradient centrifugation. T-lymphocytes are further purified from these PBMCs, by for example magnetic bead separation using a pan-T cell reagents, or CD4 reagents. […] To determine the cells' viability response to cladribine, identical numbers of lymphocytes purified from both healthy donor and NMO patients are cultured with one of a number of cladribine concentrations, ranging from for example one nanomolar to one hundred micromolar (1×10^−9M to 1×10^−4M), or without any cladribine. After a period of several days, for example four days, the fraction of live cells is determined, for example by annexin V staining or trypan blue staining. This experiment is done either under stimulated conditions (that is, with the addition of anti-CD3 and anti-CD28 antibodies in all cultures, as below) or without these stimulating antibodies.

[3] = test system: T lymphocytes from NMO patients; assay: Stimulated (anti-CD3/anti-CD28) cytokine secretion by T lymphocytes from NMO patients; format: cell-based, human; settings: cladribine 1×10^−9M to 1×10^−4M, supernatants e.g. 24 hours, compared with healthy donors
Source text: Using the methods described in Laugel B. et al., J. Neuroimmunol.; (2011); 240-241; 52-57 peripheral blood mononuclear cells (PBMCs) are first isolated from blood obtained from healthy donors and NMO patients, for example by ficoll gradient centrifugation. T-lymphocytes are further purified from these PBMCs, by for example magnetic bead separation using a pan-T cell reagents, or CD4 reagents. The purified lymphocytes are maintained in culture using standard methods and reagents, for example RPMI-1640 growth medium.
To determine the effect of cladribine on stimulated cytokine secretion by T lymphocytes from NMO patients, identical numbers of purified lymphocytes purified from both healthy donor and NMO patients are pre-incubated for less than one hour in medium containing one of a number of cladribine concentrations, ranging from for example one nanomolar to one hundred micromolar (1×10^−9M to 1×10^−4M), or without added cladribine. Cells are then transferred, with their cladribine-containing or control medium, to the wells of culture plates coated with anti-CD3 antibody, and soluble anti-CD28 antibody is added. Secreted cytokines in culture supernatants collected after, for example, 24 hours, are determined by one of several standard methods including bead-based cytometric cytokine assay and enzyme-linked immunosorbent assay. […]

[4] = target: A2A (adenosine receptor class 2a) (Homo sapiens, UniProt P29274); settings: cited from earlier work
human lymphocytes = settings: phosphorylation by CK blocked, lymphocyte death does not occur; cited from earlier work
[5] = test system: IgM associated inflammatory peripheral neuropathy patient; settings: intravenous infusion, two courses of cladribine, cited from earlier work
NMO patients = settings: cited from earlier work

A2A (adenosine receptor class 2a), sequence (P29274 whole entry): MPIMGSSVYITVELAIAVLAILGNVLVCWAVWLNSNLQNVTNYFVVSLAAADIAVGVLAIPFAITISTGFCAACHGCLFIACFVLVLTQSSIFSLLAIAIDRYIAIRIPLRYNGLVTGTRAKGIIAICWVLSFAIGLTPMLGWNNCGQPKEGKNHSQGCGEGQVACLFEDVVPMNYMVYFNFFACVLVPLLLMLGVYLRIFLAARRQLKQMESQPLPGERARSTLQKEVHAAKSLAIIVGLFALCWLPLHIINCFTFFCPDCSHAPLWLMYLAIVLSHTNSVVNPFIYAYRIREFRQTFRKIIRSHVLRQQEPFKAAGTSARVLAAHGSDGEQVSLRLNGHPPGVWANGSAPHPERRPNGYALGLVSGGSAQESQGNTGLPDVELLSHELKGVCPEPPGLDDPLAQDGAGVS

Nc1nc(Cl)nc2c1ncn2[C@H]1C[C@H](O)[C@@H](CO)O1 [cladribine, 2-chloro-2′-deoxyadenosine]
disease course after cladribine treatment ([1]; one NMO patient, single course 100 mg s.c., no further immunosuppressant treatment): two years without noted deterioration; also recorded: stabilization of the disease course for over two years | adverse events attributed to cladribine ([1]; one NMO patient, total 100 mg cladribine s.c.): No adverse events attributed to cladribine were reported | stable condition without reported relapses ([1]; one NMO patient, total 100 mg cladribine s.c., from initiation of an 8-month course): 34 months | period of beneficial effects on the disease without retreatment ([1]; short period of treatment (several weeks)): over 18 months | viability (fraction of live cells) of lymphocytes from NMO patients [2]: die over several days in a manner and to an extent similar to those purified from healthy donors | secretion of cytokines by lymphocytes from NMO patients [3]: inhibited by cladribine in a manner and to a degree similar to the inhibition seen in lymphocytes from healthy donors | affinity at A2A receptors [4]: binds with high affinity | induced cytokine production (human lymphocytes): decreased | IgM antibody levels [5]: IgM levels declined slowly over a period of more than one year | symptoms ([5]; maintained for several years): symptomatic improvement

O=C1c2c(O)ccc(O)c2C(=O)c2c(NCCNCCO)ccc(NCCNCCO)c21 [mitoxantrone]
disease course under mitoxantrone ([1]; same patient, after relapse following cladribine, impaired walking, neurogenic bladder, blindness): progressive deterioration

Glatiramer acetate
effect on NMO (NMO patients): has not been found to be effective
